The text below walks through data of ChEMBL document CHEMBL1149781, “New glycosidic derivatives of histidine-containing dipeptides with antioxidant properties and resistant to carnosinase activity” (Eur J Med Chem, 2008).

The structures appear in SMILES notation. pIC50: −log10 of the molar value.

Holding throughout (assay type): functional
Test [1] is described as follows: Antioxidant activity against copper-induced lipid peroxidation in human LDL assessed as inhibition of malondialdehyde formation.
Test [2] in a line: Antioxidant activity against copper-induced lipid peroxidation in human LDL assessed as inhibition of malondialdehyde formation at 5 uM relative to control. Set-up: scale not given: the % may be the effect or the level left.
A short description of test [3]: Antioxidant activity against copper-induced lipid peroxidation in human LDL assessed as inhibition of malondialdehyde formation at 200 uM relative to control. More on the design: scale not given: the % may be the effect or the level left.
Test [4] is described as follows: Antioxidant activity against copper-induced lipid peroxidation in human LDL assessed as inhibition of malondialdehyde formation at 2 uM relative to control. Set-up: scale not given: the % may be the effect or the level left.
Test [5] is described as follows: Antioxidant activity against copper-induced lipid peroxidation in human LDL assessed as inhibition of malondialdehyde formation at 20 uM relative to control. Set-up: scale not given: the % may be the effect or the level left.
Test [6] can be described thus: Antioxidant activity against copper-induced lipid peroxidation in human LDL assessed as inhibition of malondialdehyde formation at 50 uM relative to control. More on the design: scale not given: the % may be the effect or the level left.
The nature of test [7]: Antioxidant activity against copper-induced lipid peroxidation in human LDL assessed as inhibition of malondialdehyde formation at 10 uM relative to control. More on the design: scale not given: the % may be the effect or the level left.
A short description of test [8]: Antioxidant activity against copper-induced lipid peroxidation in human LDL assessed as inhibition of malondialdehyde formation at 100 uM relative to control. Set-up: scale not given: the % may be the effect or the level left.

As for `O=C(CCN[C@@H]1[C@@H](O)[C@H]2O[C@H]3[C@H](O)[C@@H](O)[C@@H](O[C@H]4[C@H](O)[C@@H](O)[C@@H](O[C@H]5[C@H](O)[C@@H](O)[C@@H](O[C@H]6[C@H](O)[C@@H](O)[C@@H](O[C@H]7[C@H](O)[C@@H](O)[C@@H](O[C@H]8[C@H](O)[C@@H](O)[C@@H](O[C@@H]1[C@@H](CO)O2)O[C@@H]8CO)O[C@@H]7CO)O[C@@H]6CO)O[C@@H]5CO)O[C@@H]4CO)O[C@@H]3CO)NC(Cc1cnc[nH]1)C(=O)O` (some centres not stated), the pIC50 (usually −log10 of the IC50, conventionally taken in molar units) in test [1] was 4.63.
As to `Cn1cncc1CC(NC(=O)CCN[C@@H]1[C@@H](O)[C@H]2O[C@H]3[C@H](O)[C@@H](O)[C@@H](O[C@H]4[C@H](O)[C@@H](O)[C@@H](O[C@H]5[C@H](O)[C@@H](O)[C@@H](O[C@H]6[C@H](O)[C@@H](O)[C@@H](O[C@H]7[C@H](O)[C@@H](O)[C@@H](O[C@H]8[C@H](O)[C@@H](O)[C@@H](O[C@@H]1[C@@H](CO)O2)O[C@@H]8CO)O[C@@H]7CO)O[C@@H]6CO)O[C@@H]5CO)O[C@@H]4CO)O[C@@H]3CO)C(=O)O` (some centres not stated), the pIC50 in test [1] is 4.38.
In the case of `Cn1cncc1C[C@H](NC(=O)CCN)C(=O)O`, the Activity in test [2] amounted to 0.51%; in test [3], 18.7%; in test [4], 0.23%; in test [5] it was 2.14%; in test [6] it was 8.55%; in test [7], 1.05%. Besides, the Activity in test [8] came out at 12.2%.
Regarding `Cn1cncc1CC(NC(=O)CCNC[C@H]1O[C@@H]2O[C@H]3[C@H](O)[C@@H](O)[C@@H](O[C@H]4[C@H](O)[C@@H](O)[C@@H](O[C@H]5[C@H](O)[C@@H](O)[C@@H](O[C@H]6[C@H](O)[C@@H](O)[C@@H](O[C@H]7[C@H](O)[C@@H](O)[C@@H](O[C@H]8[C@H](O)[C@@H](O)[C@@H](O[C@H]1[C@H](O)[C@H]2O)O[C@@H]8CO)O[C@@H]7CO)O[C@@H]6CO)O[C@@H]5CO)O[C@@H]4CO)O[C@@H]3CO)C(=O)O` (some centres not stated), in test [1], the pIC50 is 4.05.
In the case of `OC[C@H]1O[C@@H]2O[C@H]3[C@H](O)[C@@H](O)[C@@H](O[C@H]4[C@H](O)[C@@H](O)[C@@H](O[C@H]5[C@H](O)[C@@H](O)[C@@H](O[C@H]6[C@H](O)[C@@H](O)[C@@H](O[C@H]7[C@H](O)[C@@H](O)[C@@H](O[C@H]8[C@H](O)[C@@H](O)[C@@H](O[C@H]1[C@H](O)[C@H]2O)O[C@@H]8CO)O[C@@H]7CO)O[C@@H]6CO)O[C@@H]5CO)O[C@@H]4CO)O[C@@H]3CO`, the Activity in test [2] turned out to be 0.38%; in test [3] it was 10.7%; in test [4] it was 0.11%; in test [5], 1.26%; in test [6] it was 3.87%; in test [7], 0.65%. In addition, the Activity in test [8] came out at 6.94%.
